Where two headings read alike, the source gives them in different places.
Legend:
[1] = tested on: A2780/CP70 cells; assay: MTT cell proliferation assay, A2780/CP70 ovarian cancer cells; type: cell-based, human; details: for IC50: 24 h
Procedure: (§1) FIG. 1. […] (A) A2780/CP70 cells and human fibroblast GM847 cells were seeded in 96-well plate at 4×10^3 cells per well and incubated overnight. […] The cells were incubated for 24 h. Cell proliferation was determined by MTT reduction. […] Cells were trypsinized, harvested, washed once with PBS buffer, and stained using the Annexin-V-Folus Kit as per the manufacture's instructions. […] After incubation, all cells were collected and total DNA was isolated. Eight (8) μg of DNA was resolved on 1.8% agarose gel. […] (D) Treatment of GM847 cells was the same as that of 5D. […] Cleavage of caspase-3 and PARP was detected by western-blot.
FIG. 3. […] A2780/CP70 cells were seeded in 96-well plates and incubated overnight. The old medium was discarded and fresh medium with cisplatin (CDDP) in the presence or absence of apigenin (Api) was added. In 24 h, the cell proliferation was determined by means of MTT reduction method.
FIG. 9. […] A, Cisplatin-resistant ovarian cancer cell line A2780/CP70, and B, prostate cancer cells PC-3 were seeded in 96-well plates at 1×10^4 cells/well and incubated overnight. […] In 24 h, the cell proliferation was assayed by using a MTT assay kit. *indicates significant difference compared to cisplatin alone (p<0.01).

[2] = tested on: PC-3 cells; assay: MTT cell proliferation assay, PC-3 prostate cancer cells; type: cell-based, human
Procedure: (§2) FIG. 8. […] Prostate cancer cells PC-3 and DU145 were seeded in 96-well plates at 1×10^4 cells/well. […] The cell proliferation was assayed by culturing the cells for 24 h, then adding 10 μl of MTT reagent with incubation for 2 h. The reaction was stopped by adding 100 μl of solubilization solution. The relative cell proliferation was obtained by the reading at 590 nm which was recorded in a spectrophotometer, and normalized to the value of control.
FIG. 9. […] A, Cisplatin-resistant ovarian cancer cell line A2780/CP70, and B, prostate cancer cells PC-3 were seeded in 96-well plates at 1×10^4 cells/well and incubated overnight.
(§3) FIG. 17. […] A, the prostate cancer cells PC-3 and DU145; B, colon cancer cells Colo-205 and HCT-116; C, lung cancer cells A549 and H460 cells were plated at 1×10^4 cells per well in a 96 well plate in 100 μl of media.
FIG. 18. […] A and B, the prostate cancer cells PC-3 and DU145; C, colon cancer cells Colo-205 and HCT-116; D, lung cancer cells A549 and H460 cells were plated at 1×10^4 cells per well in a 96 well plate in 100 μl of media. […] The cell proliferation was analyzed by MTT assay.
(§4) FIG. 19. […] A, prostate cancer cells PC-3; and B, DU145 cells were plated at 1×10^4 cells per well in a 96 well plate in 100 μl of media. […] Cell proliferation was examined by MTT assay.
(§5) FIG. 23. […] Cell proliferation was examined by MTT assay.

[3] = tested on: Colo-205 cells; assay: MTT cell proliferation assay, Colo-205 colon cancer cells; type: cell-based, human; details: colo-205, 15 μM apigenin, 24 h
Procedure: FIG. 17. […] A, the prostate cancer cells PC-3 and DU145; B, colon cancer cells Colo-205 and HCT-116; C, lung cancer cells A549 and H460 cells were plated at 1×10^4 cells per well in a 96 well plate in 100 μl of media. […] FIG. 20. […] A, the prostate cancer cells PC-3 and DU145; B, colon cancer cells Colo-205 and HCT-116; C, lung cancer cells A549 and H460 cells were plated at 1×10^4 cells per well in a 96 well plate. […] Cell proliferation was examined by MTT assay. […] FIG. 22. […] A, colon cancer cells Colo-205 and HCT-116; B, lung cancer cells A549 and H460 cells were plated at 1×10^4 cells per well in a 96 well plate the day before the treatment. […] Cell proliferation was examined by MTT assay. […] FIG. 24. […] The IC50 values for inhibiting cell proliferation were calculated from cell proliferation assay as described above.

[4] = tested on: H460 cells; assay: MTT cell proliferation assay, H460 lung cancer cells; type: cell-based, human; details: H460, 15 μM apigenin, 24 h
Procedure: FIG. 17. […] A, the prostate cancer cells PC-3 and DU145; B, colon cancer cells Colo-205 and HCT-116; C, lung cancer cells A549 and H460 cells were plated at 1×10^4 cells per well in a 96 well plate in 100 μl of media. […] FIG. 18. […] A and B, the prostate cancer cells PC-3 and DU145; C, colon cancer cells Colo-205 and HCT-116; D, lung cancer cells A549 and H460 cells were plated at 1×10^4 cells per well in a 96 well plate in 100 μl of media. […] The cell proliferation was analyzed by MTT assay. […] FIG. 22. […] A, colon cancer cells Colo-205 and HCT-116; B, lung cancer cells A549 and H460 cells were plated at 1×10^4 cells per well in a 96 well plate the day before the treatment. […] Cell proliferation was examined by MTT assay. […] FIG. 25.

[5] = tested on: A2780/CP70 cells; assay: Annexin V apoptosis assay, A2780/CP70; type: cell-based, human; details: A2780/CP70, 10 μM cisplatin, 24 h
Procedure: as §1
FIG. 10. […] The cisplatin-resistant ovarian cancer A2780/CP70 cells were seeded in a petri dish. […] After treatment, the cells were collected and the relative cellular apoptosis was analyzed by Annexin V Kit (Roche), and compared to the control.

[6] = tested on: tumors induced by A2780/CP70 cells; assay: Tumor weight of A2780/CP70 tumors on CAM; type: in vivo, chicken embryo; details: 2.5 μM CDDP, 10 days
Procedure: (§6) FIG. 4. […] The A2780/CP70 cells were seeded into 100 mm dish and grown to 90-100% confluence. […] In 10 days, the tumors were harvested and weighed. The blood vessel numbers of the tumor were counted under×100. At least five areas were determined. The data are mean±SD from two experiments (n=8). A, representative tumor morphology; B, tumor weight; C, relative numbers of blood vessels.

[7] = tested on: tumors induced by A2780/CP70 cells; assay: Blood vessel numbers of A2780/CP70 tumors on CAM; type: in vivo, chicken embryo; details: 2.5 μM CDDP alone, 10 days
Procedure: as §6

[8] = tested on: DU145 cells; assay: MTT cell proliferation assay, DU145 prostate cancer cells; type: cell-based, human; details: DU145, 15 μM apigenin, 24 h
Procedure: as §2, §3, §4
FIG. 21. […] A, the prostate cancer cells PC-3 and DU145; B and C, colon cancer cells Colo-205 and HCT-116 were plated at 1×10^4 cells per well in a 96 well plate in 100 μl of media a day before the treatment.
as §5

[9] = tested on: PC-3 prostate cancer cells; assay: Cell survival by MTT reduction assay with taxol, PC-3; type: cell-based, human; details: for IC50: Homo sapiens, 48 h, read-out: IC50 of cell viability (cell survival)
Procedure: (§7) FIG. 11. […] PC-3 prostate cancer cells and A2780/CP70 ovarian cancer cells were seeded in 96-well plates and incubated overnight. […] After 48 h, cell survival was determined by means of MTT reduction assay.

[10] = tested on: A2780/CP70 ovarian cancer cells; assay: Cell survival by MTT reduction assay with taxol, A2780/CP70; type: cell-based, human; details: for IC50: Homo sapiens, A2780/CP70, 48 h, 48 h, read-out: IC50 of cell viability (cell survival)
Procedure: as §7

N.N.[Cl][Pt][Cl] [cisplatin]
reduction of cisplatin IC50 by apigenin ([1]; A2780/CP70, 10 μM apigenin): 4 fold | IC50 ([1]; A2780/CP70, cisplatin alone, read-out: concentration of cisplatin needed to inhibit 50% of cell proliferation (IC50)): ~20000 nM | IC50 ([1]; A2780/CP70, with addition of 10 μM apigenin, read-out: IC50 of cisplatin for cell proliferation): 5000 nM | reduction of cisplatin IC50 by apigenin ([2]; PC-3, 10 μM apigenin): 7 fold | IC50 ([2]; PC-3, in the presence of 10 μM apigenin, 24 h, read-out: cisplatin concentration giving 50% inhibition of cell proliferation): 3000 nM | decrease of IC50 by apigenin [3]: 3 fold | decrease of IC50 by combination with apigenin [4]: 20 fold | apoptosis [5]: low levels of apoptosis | effect on tumor growth [6]: slightly inhibited tumor growth | effect on blood vessel formation [7]: slightly inhibited the blood vessel formation

COc1cccc2c1C(=O)c1c(O)c3c(c(O)c1C2=O)C[C@@](O)(C(=O)CO)C[C@@H]3O[C@H]1C[C@H](N)[C@H](O)[C@H](C)O1 [doxorubicin]
reduction of IC50 of doxorubicin by apigenin ([2]; PC-3, 15 μM apigenin, 24 h): 2 fold | decrease of IC50 by combination with apigenin [4]: 20 fold

O=c1[nH]cc(F)c(=O)[nH]1 [fluorouracil, reference compound]
reduction of IC50 of fluorouracil by apigenin [8]: 70%

CO[C@@]12[C@H](COC(N)=O)C3=C(C(=O)C(C)=C(N)C3=O)N1C[C@@H]1N[C@@H]12 [mitomycin C]
decrease of IC50 by apigenin [3]: 7 fold

CC(=O)O[C@H]1C(=O)[C@@]2(C)[C@H]([C@H](OC(=O)c3ccccc3)[C@]3(O)C[C@H](OC(=O)[C@H](O)[C@@H](NC(=O)c4ccccc4)c4ccccc4)C(C)=C1C3(C)C)[C@]1(OC(C)=O)CO[C@@H]1C[C@@H]2O [taxol]
IC50 ([9]; PC-3, taxol alone): 577 nM | IC50 ([9]; PC-3, taxol with 20 μM apigenin): 50.3 nM | taxol IC50 with apigenin, fold less than taxol alone ([9]; PC-3, 20 μM apigenin): 11 fold | taxol IC50 with apigenin, fold less than taxol alone ([10]; A2780/CP70, 20 μM apigenin): 2 fold | IC50 ([10]; A2780/CP70, taxol alone): 503 nM | IC50 ([10]; A2780/CP70, taxol with 20 μM apigenin): 225 nM

— patent US8377918B2 (ACC Therapeutics Inc, priority 2005, dated 2013)
